In patent US20260272865A1, “HYDROXYPHENYL PROPANOATE COMPOUNDS FOR TUMOUR IMMUNOTHERAPY, COMPOSITIONS AND USES THEREOF” (UTI LIMITED PARTNERSHIP, priority 2023, published 2026):

Assays:
OVA-specific CD8 T cells = assay: Flow cytometry of OVA-specific CD8 T cells within M3-9-M^OVA tumours; assay type: in vivo, mouse; conditions: male IMDM-CR mice, 18 days after implantation
Description: Tumours were isolated from mice and single cell suspensions were made using a mouse tumour dissociation kit following the manufacturer's instructions (Miltenyi Biotec). The isolated tumours were minced into pieces ~2-4 mm in diameter using a sterile scalpel, homogenized the tumour samples in RPMI 1640 media and enzyme mix for 1 minute, and incubated the homogenates for 40 minutes with continuous gentle shaking at 37° C. The homogenates were then filtered through a 70 μm cell strainer followed by centrifuging the single cell suspensions. The red blood cells (RBC) were removed using RBC lysis buffer. A Percoll gradient based leukocyte separation was performed followed by live and dead cell staining using Zombie Aqua dye (BioLegend). Cell surface markers were stained using ant-CD4-FITC (clone RM4-4, BioLegend), anti-CD8-PE.Cy7 (clone 53-6.7, BioLegend), anti-CD3-BV421 (clone 145-2C11, BioLegend), anti-CD45-APC.Cy7 (clone 30-F11, BioLegend), anti-PD-1-FITC (clone 29F.1A12, BioLegend), anti-TIM3-PE (clone RMT3-23, BioLegend) and anti-LAG3-PerCP/Cy5.5 (clone C9B7W, BioLegend) for T lymphocytes. For OVA-specific CD8 T cell detection, H-2K(b) chicken ova 257-264 human B2M SIINFEKL Alexa 647-labeled tetramer was used. The cells were washed after staining with FACS buffer and quantified using the Attune NxT Flow Cytometer (Thermo Fisher Scientific).

[1] = system: GSDMD-mediated anti-tumour immunity; assay: Orthotopic M3-9-M^OVA RMS in WT vs GSDMD-KO mice; assay type: in vivo, mouse
Description: It was hypothesized that the HPP metabolite enhances cancer immunity by targeting a critical signalling protein involved in the NF-κB pathway. […] Through nonparametric analysis of the response curves (NPARC) (Mol. Cell. Proteomics 18, (2019)), 647 potential protein targets of 3,2-HPP metabolite were identified (FIG. 10b). To narrow down the investigation, GSDMD was focused on (FIG. 10c, d), which is a cell membrane pore-forming protein that plays a critical role in inflammasome pathway, IL-1β release and tumour immunity (Cell Rep. 34, (2021); Cell Res. 25, 1285-98 (2015); J. Immunother. Cancer 10, (2022); Cell Rep. 41, (2022); Int. Immunopharmacol. 74, (2019); J. Dig. Dis. 19, (2018); Int. J. Biol. Sci. 17, (2021); Nat. Commun. 13, 1-20 (2022); BMC Cancer 20, (2020); Oncogene 41, 5092-5106 (2022)). A correlation between the expression of inflammasome genes, GSDMD and NF-κB1 in tumour infiltrated immune cells was observed (FIG. 11). Whether 3,2-HPP targets GSDMD-mediated anti-tumour immunity was validated by orthotopically implanting M3-9-M^OVA RMS into the gastrocnemius muscle of male C57BL/6NJ (WT) and C57BL/6N-Gsdmdem4Fcw/J (KO) mice (FIG. 10e).

O=C(O)CCc1ccccc1O [Compound I-1, 3-(2-hydroxyphenyl)propanoic acid]
expression of exhaustion markers PD1, TIM3, LAG3 on OVA-specific CD8 T cells (OVA-specific CD8 T cells): no significant changes
frequency of OVA-specific CD8 T cells in the tumour (OVA-specific CD8 T cells): increase the frequency
effect on tumours implanted in GSDMD-KO mice ([1]; male C57BL/6N-Gsdmdem4Fcw/J (KO) mice): had no effect
overall survival ([1]; male C57BL/6NJ (WT) mice): increased overall survival
tumour growth ([1]; male C57BL/6NJ (WT) mice): decreased tumour growth
